We go through two compounds from doi:10.1101/670703v1 (biorxiv, 2019).

The target in one assay is T1, RelTt (Thermus thermophilus, UniProt Q5SHL3).
T1 sequence (Q5SHL3 1-727): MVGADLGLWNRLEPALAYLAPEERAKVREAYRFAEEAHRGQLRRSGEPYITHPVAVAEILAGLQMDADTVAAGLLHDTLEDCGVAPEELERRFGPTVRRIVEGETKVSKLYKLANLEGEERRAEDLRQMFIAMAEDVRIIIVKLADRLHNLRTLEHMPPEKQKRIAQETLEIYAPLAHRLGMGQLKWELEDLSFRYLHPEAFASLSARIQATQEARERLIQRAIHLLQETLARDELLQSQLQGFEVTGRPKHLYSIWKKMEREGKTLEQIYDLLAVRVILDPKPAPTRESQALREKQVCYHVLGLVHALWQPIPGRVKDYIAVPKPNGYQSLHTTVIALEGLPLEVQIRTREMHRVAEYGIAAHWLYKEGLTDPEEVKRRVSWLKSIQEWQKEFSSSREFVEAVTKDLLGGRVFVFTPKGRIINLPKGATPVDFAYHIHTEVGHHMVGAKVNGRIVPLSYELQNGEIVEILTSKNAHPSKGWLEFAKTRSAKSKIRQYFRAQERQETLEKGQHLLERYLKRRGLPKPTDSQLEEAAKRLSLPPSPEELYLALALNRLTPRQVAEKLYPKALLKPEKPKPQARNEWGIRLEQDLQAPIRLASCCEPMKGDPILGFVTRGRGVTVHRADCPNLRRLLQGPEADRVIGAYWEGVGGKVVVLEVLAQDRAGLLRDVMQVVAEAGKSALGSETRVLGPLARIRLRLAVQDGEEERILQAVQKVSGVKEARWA
As to the kind of experiment: ppGpp synthetase activity. It counts as biochemical. Particulars: enzyme alone (also with 70S IC and deacylated tRNAVal).

A further assay deals with T2, RelTt^NTD (Thermus thermophilus, UniProt Q5SHL3).
T2 sequence (Q5SHL3 1-355): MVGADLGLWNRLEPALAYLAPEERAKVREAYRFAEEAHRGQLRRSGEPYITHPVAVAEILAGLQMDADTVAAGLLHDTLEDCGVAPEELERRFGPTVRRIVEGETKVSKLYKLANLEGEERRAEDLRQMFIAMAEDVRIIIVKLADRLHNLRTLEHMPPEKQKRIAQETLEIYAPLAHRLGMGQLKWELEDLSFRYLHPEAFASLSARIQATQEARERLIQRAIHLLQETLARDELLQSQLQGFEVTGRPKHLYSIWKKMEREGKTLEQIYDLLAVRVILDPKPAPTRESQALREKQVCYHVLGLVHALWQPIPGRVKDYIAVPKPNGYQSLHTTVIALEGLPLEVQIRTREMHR
Kind of assay: isothermal titration calorimetry. It counts as binding.

Regarding `Nc1nc2c(ncn2[C@@H]2O[C@H](COP(=O)(O)OP(=O)(O)O)[C@@H](OP(=O)(O)OP(=O)(O)O)[C@H]2O)c(=O)[nH]1` [ppGpp], the ppGpp synthetase activity entry at RelTt is “ppGpp synthetase activity of RelTt”. In turn, `Nc1ncnc2c1ncn2[C@@H]1O[C@H](COP(=O)(O)CP(=O)(O)OP(=O)(O)O)[C@@H](O)[C@H]1O` [APCPP] displayed a dissociation constant Kd on RelTt^NTD of around 50 µM.

The Kd is the constant that tells how readily two partners part at equilibrium. Lower therefore signals tighter binding.
